Key:
[1] = target: T1, thioredoxin reductase (TrxR) (Homo sapiens, UniProt Q16881); conditions: read-out: Inhibitory activity against thioredoxin reductase (IC50) TrxR; cellular total protein, NADPH, DTNB, 405 nm
T1 sequence (Q16881 1-649): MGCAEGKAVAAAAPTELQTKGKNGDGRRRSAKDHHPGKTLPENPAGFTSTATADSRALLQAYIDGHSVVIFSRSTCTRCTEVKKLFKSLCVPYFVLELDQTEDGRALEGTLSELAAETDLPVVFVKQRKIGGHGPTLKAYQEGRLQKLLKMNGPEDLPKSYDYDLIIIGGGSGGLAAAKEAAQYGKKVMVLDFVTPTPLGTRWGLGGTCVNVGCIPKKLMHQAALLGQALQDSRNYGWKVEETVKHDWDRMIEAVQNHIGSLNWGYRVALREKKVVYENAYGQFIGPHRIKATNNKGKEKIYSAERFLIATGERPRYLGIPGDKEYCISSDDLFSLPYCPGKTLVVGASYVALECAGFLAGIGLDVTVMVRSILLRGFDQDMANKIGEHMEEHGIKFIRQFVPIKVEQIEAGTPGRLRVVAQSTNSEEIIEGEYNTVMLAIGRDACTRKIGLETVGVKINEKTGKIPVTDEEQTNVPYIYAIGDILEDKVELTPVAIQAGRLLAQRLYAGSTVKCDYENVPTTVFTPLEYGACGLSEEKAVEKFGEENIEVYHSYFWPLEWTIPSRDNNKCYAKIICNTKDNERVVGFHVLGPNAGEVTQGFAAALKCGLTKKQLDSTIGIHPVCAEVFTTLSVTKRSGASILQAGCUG
Protocol: The cellular total protein (i.e. thioredoxin reductase) was extracted and the concentration was determined. 30 μg of protein sample was added to a 96-well plate (3 replicate wells per concentration), and the volume was made up to 80 μL with 0.1 M sodium phosphate buffer. The protein samples were incubated in an oven at 37° C. for 30 min.
The absorbance was immediately measured at 405 nm using a microplate reader (FlexStation 3, Molecular Devices). Shaking was performed for 10 s before the first reading, and determination was performed once every 15 s, 30 times in total. The maximum reaction rate was taken as an enzymatic activity index. The experiment was independently repeated three times.

human glioma cell U87 [2] = test: Pharmacodynamic study in human glioma cell U87 subcutaneous model; assay type: in vivo, Balb/c nude mice; conditions: compounds 20 mg/Kg, q.d.×14 days
From the text: The route of administration was intragastric administration ([…]., q.d.×14 days).

[3] = tested on: U251MG human glioma cells; test: In-vitro anti-cancer activity screening, SRB method, U251MG; assay type: cell-based; conditions: U-251
Protocol: (§1) Referring to the method of example 9, two tumor cell lines, U251MG and U251TR human glioma cells, were selected, and temozolomide and the compounds of the present disclosure were subjected to in-vitro anti-cancer activity screening using the SRB method.

[4] = tested on: U251TR human glioma cells; test: In-vitro anti-cancer activity screening, SRB method, U251TR; assay type: cell-based; conditions: Glioma cell, drug-resistant strain
Protocol: as §1

human glioma cell U87 [5] = test: Tumor volume inhibition rate, i.v. dosing; assay type: in vivo, Balb/c nude mice; conditions: Mus musculus, iv, TMZ 10 mg·kg^−1, i.v.
Protocol: In addition, low-dosage 0409 (20 mg·kg^−1, i.v.) and TMZ (10 mg·kg^−1, i.v.) were synchronously used for an assay to determine the volume tumor inhibition rate.

human glioma cell U87 [6] = test: In-vivo antitumor activity, U87 tumor-bearing nude mice, i.g. dosing; parameters: species or system Balb/c nude mice; conditions: q.d., end of the experiment; for Tumor volume: 11 days
From the text: The tumor emergence rate was 100%.
The solvent was freshly prepared when needed each day.

[7] = tested on: human glioma cells (LN229); test: In-vitro growth inhibition, MTT method, LN229; assay type: cell-based; conditions: LN-229, 48 h
Protocol: (§2) The in-vitro growth inhibitory activity of compounds 1 to 8 of the present disclosure against human glioma cells (U87 and LN229), human hepatoma cells (SMMC-7721) and human pancreatic carcinoma cells (Panc1) was studied adopting the MTT method.
(§3) U87, LN229, SMMC-7721 and Panc1 cells growing at log phase were separately inoculated into a 96-well plate at a density of 5×10^4 cells/mL, 180 μL/well. After the cells were attached to the wall, 20 μL of a drug liquid was added to each well, so that the final concentrations of the drug were 0 μM, 5 μM, 10 μM, 20 μM and 50 μM. After 48 h of action, a 5 mg/mL MTT solution (20 μL/well) was added. After the cells were incubated in a CO2 incubator for 3 to 4 h, the supernatant was carefully discarded. After the residual liquid was air-dried, acidified isopropanol (50 μL of concentrated hydrochloric acid dissolved in 500 mL of isopropanol) was added at […], and the plate was shaken on a shaker for 30 min. After the crystals were completely dissolved, absorbance OD values were measured by a microplate reader at 570 nm.
(§4) Cell viability %=(drug-treated cell OD−blank group OD)/(control cell OD−blank group OD)×100
(§5) Cell killing rate %=1−cell viability %

human glioma cells (U87) = test: In-vitro growth inhibition, MTT method, U87; assay type: cell-based; conditions: Glioma cell, 48 h
Protocol: as §2
as §3, with “After the cells were attached to the wall, 20 μL of a drug liquid was added to each well, so that the final concentrations of the drug were 0 μM, 5 μM, 10 μM, 20 μM and 50 μM.” left out
as §4, §5

[8] = tested on: human hepatoma cells (SMMC-7721); test: In-vitro growth inhibition, MTT method, SMMC-7721; assay type: cell-based; conditions: 48 h
Protocol: as §2, §3, §4, §5

[9] = tested on: human pancreatic carcinoma cells (Panc1); test: In-vitro growth inhibition, MTT method, Panc1; assay type: cell-based; conditions: PANC-1, 48 h
Protocol: as §2, §3, §4, §5

[10] = 240 h, Day 10, 20 mg·kg^−1, i.v.
[11] = 264 h, Day 11, 20 mg·kg^−1, i.v.
[12] = 288 h, Day 12, 20 mg·kg^−1, i.v.
[13] = 312 h, Day 13, 20 mg·kg^−1, i.v.
[14] = 336 h, Day 14, 20 mg·kg^−1, i.v.
[15] = 360 h, Day 15, 20 mg·kg^−1, i.v.
[16] = 384 h, Day 16, 20 mg·kg^−1, i.v.
[17] = 408 h, Day 17, 20 mg·kg^−1, i.v.
[18] = 432 h, Day 18, 20 mg·kg^−1, i.v.
[19] = 0409 high-dose group 90 mg·kg^−1, i.g.
[20] = 0409 low-dose group 45 mg·kg^−1, i.g.

SMILES	Tumor inhibition rate (human glioma cell U87 [2]; Day 1) [%]	Tumor inhibition rate (human glioma cell U87 [2]; Day 4) [%]	Tumor inhibition rate (human glioma cell U87 [2]; Day 7) [%]	Tumor inhibition rate (human glioma cell U87 [2]; Day 10) [%]	Tumor inhibition rate (human glioma cell U87 [2]; Day 14 (end of the experiment)) [%]	IC50 [3] [µM]	IC50 [4] [µM]	inhibition in vivo at 20 mg/kg (human glioma cell U87 [5]; [10]) [%]	inhibition in vivo at 20 mg/kg (human glioma cell U87 [5]; [11]) [%]	inhibition in vivo at 20 mg/kg (human glioma cell U87 [5]; [12]) [%]	inhibition in vivo at 20 mg/kg (human glioma cell U87 [5]; [13]) [%]	inhibition in vivo at 20 mg/kg (human glioma cell U87 [5]; [14]) [%]	inhibition in vivo at 20 mg/kg (human glioma cell U87 [5]; [15]) [%]	inhibition in vivo at 20 mg/kg (human glioma cell U87 [5]; [16]) [%]	inhibition in vivo at 20 mg/kg (human glioma cell U87 [5]; [17]) [%]	inhibition in vivo at 20 mg/kg (human glioma cell U87 [5]; [18]) [%]	IC50 [7] [µM]	IC50 (human glioma cells (U87)) [µM]	IC50 [8] [µM]	IC50 [9] [µM]	other results
O=c1c2ccccc2[se]n1CCCCn1[se]c2ccccc2c1=O [BS, Butaselen]																					IC50 [1]: 1.14 ± 0.17 µM
Cn1nnc2c(C(=O)NCCn3[se]c4ccccc4c3=O)ncn2c1=O [Compound 1, 3,4-dihydro-3-methyl-4-oxo-N-(3(2H)-oxo-1,2-benzisoselenazol-2-yl)-ethyl-imidazo[5,1-d]-1,2,3,5-tetrazine-8-carboxamide]	5.86	58.78	78.57	74.77	81.42	48.9 ± 9.33	51.9 ± 21.9	74.8	73.8	69.8	79.8	81.4	80.5	78.5	82.3	81.7	14.4 ± 2.24	21 ± 3.07	12 ± 1.57	17.8 ± 3.44	Tumor volume (human glioma cell U87 [6]; [19]): 90.00±32.64 mm^3; Tumor proliferation inhibition rate (human glioma cell U87 [6]; [19]): 83.97%; Tumor weight (human glioma cell U87 [6]; [19]): 0.12 ± 0.04 g; Tumor volume (human glioma cell U87 [6]; [20]): 96.70±24.08 mm^3; Tumor proliferation inhibition rate (human glioma cell U87 [6]; [20]): 82.78%; Tumor weight (human glioma cell U87 [6]; [20]): 0.20 ± 0.10 g
Cc1ccc2c(=O)n(CCNC(=O)c3ncn4c(=O)n(C)nnc34)[se]c2c1 [Compound 8, 3,4-dihydro-3-methyl-4-oxo-N-(3(2H)-oxo-6-methyl-1,2-benzisoselenazol-2-yl)-ethyl-imidazo[5,1-d]-1,2,3,5-tetrazine-8-carboxamide]	−0.20	58.48	83.03	80.92	82.68	9.13 ± 1.52	16.2 ± 1.67	86.5	86.2	87.2	88.2	92.5	87.7	87	88.5	89.1	13.7 ± 2.52	20.4 ± 3.13	3.35 ± 2.13	8.65 ± 3.52	

Source: US20230167120A1, “ARYL-FUSED ISOSELENAZOLE COMPOUND CONTAINING TETRAZINE SUBSTITUENT, SYNTHESIS METHOD THEREFOR, AND USE THEREOF” (KEAISE MEDICINE WUHAN CORP., priority 2020, published 2023)
